Results as given in ChEMBL document CHEMBL4354864, “Bicyclic α-Iminophosphonates as High Affinity Imidazoline I2 Receptor Ligands for Alzheimer's Disease” (J Med Chem, 2020).

Experiments:
Homo sapiens [1] = species: Homo sapiens; assay: Selectivity index, […] for alpha2-AR human brain frontal cortex […] in human brain frontal cortex
[2] = biological target: T1, Alpha-2A adrenergic receptor (Homo sapiens, UniProt P08913); assay: biochemical
T1 sequence (P08913 whole entry): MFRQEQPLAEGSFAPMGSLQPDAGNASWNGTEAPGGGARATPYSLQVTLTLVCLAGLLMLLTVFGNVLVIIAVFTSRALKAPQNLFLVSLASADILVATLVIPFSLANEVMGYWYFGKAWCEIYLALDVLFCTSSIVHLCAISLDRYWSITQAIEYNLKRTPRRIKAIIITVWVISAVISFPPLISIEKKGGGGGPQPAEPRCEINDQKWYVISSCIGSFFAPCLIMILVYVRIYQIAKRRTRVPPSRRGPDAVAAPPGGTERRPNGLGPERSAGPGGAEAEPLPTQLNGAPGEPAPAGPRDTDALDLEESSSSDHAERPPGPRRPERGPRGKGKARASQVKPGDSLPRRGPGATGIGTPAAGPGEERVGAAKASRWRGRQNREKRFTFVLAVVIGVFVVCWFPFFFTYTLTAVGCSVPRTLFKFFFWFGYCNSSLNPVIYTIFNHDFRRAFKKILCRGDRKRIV
Description: Displacement of [3H]RX821002 from alpha2-AR in human brain frontal cortex incubated for 30 mins by liquid scintillation spectrometry

[3] = Displacement of [3H]2-BFI from I2IR in human brain frontal cortex incubated for 45 mins by liquid scintillation spectrometry; assay type: tissue-based
Nischarin = Nischarin (Homo sapiens, UniProt Q9Y2I1); assay: Displacement of [3H]clonidine from I1IR in human brain frontal cortex in presence of adrenaline incubated for 45 mins by liquid scintillation spectrometry; assay type: tissue-based
[4] = Displacement of [3H]2-BFI from I2IR in human brain frontal cortex assessed as binding affinity at low affinity site incubated for 45 mins by liquid scintillation spectrometry; assay type: tissue-based
Homo sapiens [5] = species: Homo sapiens; assay: Selectivity ratio of Ki for alpha2-AR high binding site in human brain frontal cortex to Ki for I2IR high binding site in human brain frontal cortex
[6] = Displacement of [3H]2-BFI from I2IR in human brain frontal cortex assessed as binding affinity at high affinity site incubated for 45 mins by liquid scintillation spectrometry; assay type: tissue-based
Homo sapiens [7] = species: Homo sapiens; assay: Displacement of [3H]2-BFI from I2IR in human brain frontal cortex assessed as binding affinity at high affinity site incubated for 45 mins by liquid scintillation spectrometry relative to control; assay type: tissue-based; design: concentration or dose not given beside the values

Nischarin, sequence (Q9Y2I1 whole entry): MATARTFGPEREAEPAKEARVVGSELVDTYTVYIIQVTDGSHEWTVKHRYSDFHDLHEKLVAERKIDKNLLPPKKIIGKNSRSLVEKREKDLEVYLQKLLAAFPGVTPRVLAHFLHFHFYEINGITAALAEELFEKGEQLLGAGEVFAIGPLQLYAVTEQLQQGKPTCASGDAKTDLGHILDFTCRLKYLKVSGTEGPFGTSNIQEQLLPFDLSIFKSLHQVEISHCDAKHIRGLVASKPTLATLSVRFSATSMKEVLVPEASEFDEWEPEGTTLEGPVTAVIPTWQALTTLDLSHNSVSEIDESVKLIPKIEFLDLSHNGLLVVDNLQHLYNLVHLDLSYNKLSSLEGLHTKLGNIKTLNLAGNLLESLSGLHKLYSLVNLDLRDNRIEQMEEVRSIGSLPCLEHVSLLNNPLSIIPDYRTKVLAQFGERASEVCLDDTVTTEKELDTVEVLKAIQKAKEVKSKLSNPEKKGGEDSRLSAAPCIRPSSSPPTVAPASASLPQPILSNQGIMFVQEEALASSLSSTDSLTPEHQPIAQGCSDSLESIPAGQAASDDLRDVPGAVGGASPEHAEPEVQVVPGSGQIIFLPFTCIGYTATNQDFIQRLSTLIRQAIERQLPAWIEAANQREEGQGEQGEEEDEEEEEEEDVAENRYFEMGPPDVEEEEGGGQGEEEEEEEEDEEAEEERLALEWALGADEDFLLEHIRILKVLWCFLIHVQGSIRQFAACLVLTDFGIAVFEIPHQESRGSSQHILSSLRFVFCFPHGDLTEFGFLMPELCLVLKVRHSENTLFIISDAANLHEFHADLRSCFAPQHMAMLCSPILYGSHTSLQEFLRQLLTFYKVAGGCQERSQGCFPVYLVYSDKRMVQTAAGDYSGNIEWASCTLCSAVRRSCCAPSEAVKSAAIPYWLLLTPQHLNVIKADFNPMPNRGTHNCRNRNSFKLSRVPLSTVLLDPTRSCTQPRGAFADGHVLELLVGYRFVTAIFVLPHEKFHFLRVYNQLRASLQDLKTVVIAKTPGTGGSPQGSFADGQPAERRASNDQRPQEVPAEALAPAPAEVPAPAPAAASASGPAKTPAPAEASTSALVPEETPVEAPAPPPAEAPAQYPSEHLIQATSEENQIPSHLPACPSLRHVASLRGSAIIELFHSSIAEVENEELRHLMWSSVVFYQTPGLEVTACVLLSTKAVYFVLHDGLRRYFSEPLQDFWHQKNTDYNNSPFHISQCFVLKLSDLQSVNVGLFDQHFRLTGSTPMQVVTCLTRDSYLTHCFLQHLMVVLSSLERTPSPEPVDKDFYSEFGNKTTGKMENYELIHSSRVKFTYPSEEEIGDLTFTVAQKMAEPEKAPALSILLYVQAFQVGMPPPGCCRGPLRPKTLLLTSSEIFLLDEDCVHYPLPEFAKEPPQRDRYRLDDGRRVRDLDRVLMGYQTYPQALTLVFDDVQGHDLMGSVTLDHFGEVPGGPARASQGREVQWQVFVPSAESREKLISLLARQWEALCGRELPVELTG

Row | SMILES | Ki [2] | pKi [3] | IC50 (Nischarin) | further results
1 | CCOP(=O)(OCC)C1(c2ccccc2)N=CC2C(=O)N(CC34CC5CC(CC(C5)C3)C4)C(=O)C21 (racemic) | 49 µM | 7.01 |  | Ratio pKi (Homo sapiens [1]): 501
2 | CCOP(=O)(OCC)C1(c2ccccc2)N=CC2C(=O)N(c3cccc4ccccc34)C(=O)C21 (racemic) | > 1000 µM | 3.11 |  | 
3 | CCOP(=O)(OCC)C1(c2ccccc2)N=CC2C(=O)N(c3cc(Cl)cc(Cl)c3)C(=O)C21 (racemic) | 0.603 µM | 5.81 |  | 
4 | CCOP(=O)(OCC)C1N=CC2C(=O)N(c3ccc(OC)cc3)C(=O)C21 (racemic) | 5.37e-05 µM | 5.11 | 0.00813 µM | 
5 | CCOP(=O)(OCC)C1(c2ccccc2)N=CC2C(=O)N(c3ccc(OC)cc3)C(=O)C21 (racemic) |  | 6.65 | 603 µM | 
6 | CCOP(=O)(OCC)C1(c2ccc(F)cc2)N=CC2C(=O)N(c3ccccc3)C(=O)C21 (racemic) | 0.17 µM | < 3 |  | 
7 | c1ccc2oc(-c3ncc[nH]3)cc2c1 | 6.76 µM |  |  | pKi [4]: 5.25; Ratio Ki (Homo sapiens [5]): 7240; pKi [6]: 9.03; Activity (Homo sapiens [7]): 49%
8 | CCOP(=O)(OCC)C1(c2ccc(OC)cc2)N=CC2C(=O)N(c3ccccc3)C(=O)C21 (racemic) | 141 µM | 3.39 |  | 
9 | CCOP(=O)(OCC)C1(c2ccccc2)N=CC2C(=O)N(c3ccc(-c4ccccc4)cc3)C(=O)C21 (racemic) |  | 7.9 | 0.0646 µM | 
10 | CCOP(=O)(OCC)C1(c2ccc(F)cc2)N=CC2C(=O)N(c3ccc(F)c(Cl)c3)C(=O)C21 (racemic) | 417 µM | 7.55 |  | Ratio pKi (Homo sapiens [1]): 14800
11 | CCOP(=O)(OCC)C1(c2ccccc2)N=CC2C(=O)N(c3ccc(Cl)c(Cl)c3)C(=O)C21 (racemic) |  | < 3 |  | 
12 | CCOP(=O)(OCC)C1(Cc2ccccc2)N=CC2C(=O)N(c3ccccc3)C(=O)C21 (racemic) | 115 µM | 6.59 | 7.59 µM | Ratio pKi (Homo sapiens [1]): 447
13 | CCOP(=O)(OCC)C1(c2ccccc2)N=CC2C(=O)N(c3ccc(F)cc3)C(=O)C21 (racemic) | 4.57 µM | < 3 |  | 
14 | CCOP(=O)(OCC)C1(c2ccccc2)N=CC2C(=O)N(c3ccc(Cl)cc3)C(=O)C21 (racemic) |  | < 3 |  | 
15 | CCOP(=O)(OCC)C1(c2ccccc2)N=CC2C(=O)N(C)C(=O)C21 (racemic) | 1.17 µM | 7.97 | 0.646 µM | Ratio pKi (Homo sapiens [1]): 110
16 | c1ccc2oc(C3=NCCN3)cc2c1 | 0.229 µM |  |  | pKi [4]: 7.94; Ratio Ki (Homo sapiens [5]): 1700; Ki [6]: 0.00013 µM; pKi [6]: 9.87; Activity (Homo sapiens [7]): 21%
17 | CCOP(=O)(OCC)C1N=CC2C(=O)N(C)C(=O)C21 (racemic) | 0.00447 µM | 6.79 | 7.41 µM | 
18 | CCOP(=O)(OCC)C1N=CC2C(=O)N(c3ccccc3)C(=O)C21 (racemic) | 9.55 µM | 7.73 | 3.39 µM | 
19 | CCOP(=O)(OCC)C1(c2ccccc2)N=CC2C(=O)N(C(C)(C)C)C(=O)C21 (racemic) | 0.17 µM | 7.35 |  | Ratio pKi (Homo sapiens [1]): 3
20 | C(=C\c1ccccc1)/C1=NCCN1 [TRACIZOLINE] | 46.8 µM |  |  | pKi [4]: 6.48; Ratio Ki (Homo sapiens [5]): 14100; Ki [6]: 0.0033 µM; pKi [6]: 8.48; Activity (Homo sapiens [7]): 38%
21 | CCOP(=O)(OCC)C1(c2ccc(OC)cc2)N=CC2C(=O)N(c3ccc(F)c(Cl)c3)C(=O)C21 (racemic) | > 1000 µM | 7.87 |  | Ratio pKi (Homo sapiens [1]): 74100
22 | CCOP(=O)(OCC)C1(c2ccccc2)N=CC2C(=O)N(CCc3ccc(F)cc3)C(=O)C21 (racemic) | 2.24 µM | < 3 |  | 

Row | SMILES | Ki [2] | pKi [3] | IC50 (Nischarin) | further results
23 | CCOP(=O)(OCC)C1(c2ccccc2)N=CC2C(=O)N(CCc3ccccc3)C(=O)C21 (racemic) | 170 µM | 6.35 | 0.0105 µM | Ratio pKi (Homo sapiens [1]): 380
24 | CCOP(=O)(OCC)C1(c2ccccc2)N=CC2C(=O)N(c3ccccc3Cl)C(=O)C21 (racemic) | 0.708 µM | 5.09 |  | pKi [4]: 4.74; Ratio Ki (Homo sapiens [5]): 24; pKi [6]: 7.53; Activity (Homo sapiens [7]): 25%
25 | CCOP(=O)(OCC)C1(c2ccccc2)N=CC2C(=O)N(c3cccnc3Cl)C(=O)C21 (racemic) | > 1000 µM | 7.96 |  | Ratio pKi (Homo sapiens [1]): 91200
26 | CCOP(=O)(OCC)C1(c2ccccc2)N=CC2C(=O)N(c3ccc(Br)cc3)C(=O)C21 (racemic) |  | < 3 |  | 
27 | CCOP(=O)(OCC)C1(c2ccccc2)N=CC2C(=O)N(C3Cc4ccccc4C3)C(=O)C21 (racemic) | 363 µM | 3.84 |  | pKi [4]: 3.2; Ratio Ki (Homo sapiens [5]): 2690; Ratio pKi (Homo sapiens [1]): 2; pKi [6]: 6.87; Activity (Homo sapiens [7]): 22%
28 | CCOP(=O)(OCC)C1(c2ccccc2)N=CC2C(=O)N(c3ccc(C)cc3)C(=O)C21 (racemic) |  | 5.44 |  | 
29 | CCOP(=O)(OCC)C1(c2ccccc2)N=CC2C(=O)N(c3ccccc3)C(=O)C21 (racemic) |  | 10.28 | 0.182 µM | 
30 | COc1nc(C)nc(Cl)c1N=C1NCCN1 [MOXONIDINE] |  |  | 0.00355 µM | 
31 | CCOP(=O)(OCC)C1(c2ccccc2)N=CC2C(=O)N(CC)C(=O)C21 (racemic) | 1.41 µM | 8.37 |  | pKi [4]: 5.86; Ratio Ki (Homo sapiens [5]): 1260; Ratio pKi (Homo sapiens [1]): 331; pKi [6]: 8.95; Activity (Homo sapiens [7]): 62%
32 | CCOP(=O)(OCC)C1(Cc2ccc(F)cc2)N=CC2C(=O)N(c3ccccc3)C(=O)C21 (racemic) | 0.0631 µM | 5.35 |  | 
33 | CCOP(=O)(OCC)C1(c2ccccc2)N=CC2C(=O)N(C3CCCCC3)C(=O)C21 (racemic) |  |  | 0.0288 µM | 
34 | CCOP(=O)(OCC)C1N=CC2C(=O)N(c3ccc(F)c(Cl)c3)C(=O)C21 (racemic) | 0.00324 µM | < 3 | > 1000 µM | 
35 | CCCN1C(=O)C2C=NC(c3ccccc3)(P(=O)(OCC)OCC)C2C1=O (racemic) |  | 4.02 |  | 
36 | CCOP(=O)(OCC)C1N=CC2C(=O)N(C3CCCCC3)C(=O)C21 (racemic) | 0.000324 µM | 5.74 | 7.24 µM | Ratio pKi (Homo sapiens [1]): 5
37 | CCOP(=O)(OCC)C1(c2ccccc2)N=CC2C(=O)N(c3cccc(C(F)(F)F)c3)C(=O)C21 (racemic) |  | < 3 |  | 
38 | CCOP(=O)(OCC)C1(c2ccccc2)N=CC2C(=O)N(c3cccc([N+](=O)[O-])c3)C(=O)C21 (racemic) |  | 6.81 | 5.5 µM | 
39 | CCOP(=O)(OCC)C1(c2ccccc2)N=CC2C(=O)N(Cc3ccccc3)C(=O)C21 (racemic) |  | 5.26 | 1.35 µM | 
40 | CCOP(=O)(OCC)C1(c2ccccc2)N=CC2C(=O)N(c3ccc(C(F)(F)F)cc3)C(=O)C21 (racemic) | 18.6 µM | < 3 |  | 
41 | CCOP(=O)(OCC)C1(c2ccccc2)N=CC2C(=O)N(c3cccc(Cl)c3)C(=O)C21 (racemic) |  | < 3 |  | 
42 | CCOP(=O)(OCC)C1(c2ccccc2)N=CC2C(=O)N(c3cc([N+](=O)[O-])ccc3C)C(=O)C21 (racemic) |  | < 3 |  | 
43 | CCOP(=O)(OCC)C1(c2ccccc2)N=CC2C(=O)N(c3ccc(Oc4ccccc4)cc3)C(=O)C21 (racemic) |  | 6.96 |  | 
44 | CCOP(=O)(OCC)C1(c2ccccc2)N=CC2C(=O)N(c3c(Cl)cc(Cl)cc3Cl)C(=O)C21 (racemic) | 6.92 µM | < 3 |  | 
